Experimental findings from ChEMBL document CHEMBL1150644, “Corticatic acids D and E, polyacetylenic geranylgeranyltransferase type I inhibitors, from the marine sponge Petrosia corticata” (J Nat Prod, 2002) are described below.

Each structure is given as a SMILES string. pIC50: −log10 of the molar value. Converted amounts (≈) assume the structure as drawn.

The test system of one experiment is Candida albicans. The experiment in a line: Antimicrobial activity against Candida albicans. It is filed as functional.
Experiment [1] in a line: Inhibition of Candida albicans GGTase 1 by streptavidin scintillation proximity assay. A general note: SPA uses beads or plates that emit light when radiolabelled molecules are held near them.

A word on the MIC: it is the smallest concentration in the dilution series that meets the test's criterion for growth inhibition. For orientation: pIC50 means −log10 of the IC50, conventionally taken in molar units. Read a high pIC50 as a small IC50.

In turn, `C#CC(O)/C=C/CCCCCC#CC/C=C\CCCCCCCCCCC/C=C\C#CC(=O)O` (centres undefined) [CORTICATIC ACID A] registered an MIC with Candida albicans of 54 µM (≈ 25.1 µg/mL). Also, the pIC50 in experiment [1] was 5.72. Consider `C#C[C@H](O)/C=C/CCCCCC#C/C=C/C(O)CCCCCCCCCCC/C=C\C#CC(=O)O` (some centres undefined) [CORTICATIC ACID D], for which, in experiment [1], the pIC50 is 5.48. As to `C#C[C@H](O)/C=C/CCCCC/C=C\C/C=C\CCCCCCCCCCC/C=C\C#CC(=O)O` [CORTICATIC ACID E], the pIC50 in experiment [1] is 5.14.
